# In PMC5564600 (Oncotarget, 2017):
# Columns and labels:
# Assay in all cases: biochemical
# Assay type in all cases: binding
# panel of 442 kinases [1] = molecular target: T1, panel of 442 kinases (Homo sapiens, UniProt P00533, DEL752-759); settings: EGFR(S752-I759del); for remaining activity at 1 µM: read-out: % of control at 1 µM
# T1 construct: purchased Ambit Biosciences (scanMAXX KINOMEscan)
# panel of 442 kinases [2] = molecular target: T2, panel of 442 kinases (Homo sapiens, UniProt P04626); settings: ERBB2; for remaining activity at 1 µM: read-out: % of control at 1 µM
# T2 construct: purchased Ambit Biosciences (scanMAXX KINOMEscan)
# T2 sequence (P04626 23-1255): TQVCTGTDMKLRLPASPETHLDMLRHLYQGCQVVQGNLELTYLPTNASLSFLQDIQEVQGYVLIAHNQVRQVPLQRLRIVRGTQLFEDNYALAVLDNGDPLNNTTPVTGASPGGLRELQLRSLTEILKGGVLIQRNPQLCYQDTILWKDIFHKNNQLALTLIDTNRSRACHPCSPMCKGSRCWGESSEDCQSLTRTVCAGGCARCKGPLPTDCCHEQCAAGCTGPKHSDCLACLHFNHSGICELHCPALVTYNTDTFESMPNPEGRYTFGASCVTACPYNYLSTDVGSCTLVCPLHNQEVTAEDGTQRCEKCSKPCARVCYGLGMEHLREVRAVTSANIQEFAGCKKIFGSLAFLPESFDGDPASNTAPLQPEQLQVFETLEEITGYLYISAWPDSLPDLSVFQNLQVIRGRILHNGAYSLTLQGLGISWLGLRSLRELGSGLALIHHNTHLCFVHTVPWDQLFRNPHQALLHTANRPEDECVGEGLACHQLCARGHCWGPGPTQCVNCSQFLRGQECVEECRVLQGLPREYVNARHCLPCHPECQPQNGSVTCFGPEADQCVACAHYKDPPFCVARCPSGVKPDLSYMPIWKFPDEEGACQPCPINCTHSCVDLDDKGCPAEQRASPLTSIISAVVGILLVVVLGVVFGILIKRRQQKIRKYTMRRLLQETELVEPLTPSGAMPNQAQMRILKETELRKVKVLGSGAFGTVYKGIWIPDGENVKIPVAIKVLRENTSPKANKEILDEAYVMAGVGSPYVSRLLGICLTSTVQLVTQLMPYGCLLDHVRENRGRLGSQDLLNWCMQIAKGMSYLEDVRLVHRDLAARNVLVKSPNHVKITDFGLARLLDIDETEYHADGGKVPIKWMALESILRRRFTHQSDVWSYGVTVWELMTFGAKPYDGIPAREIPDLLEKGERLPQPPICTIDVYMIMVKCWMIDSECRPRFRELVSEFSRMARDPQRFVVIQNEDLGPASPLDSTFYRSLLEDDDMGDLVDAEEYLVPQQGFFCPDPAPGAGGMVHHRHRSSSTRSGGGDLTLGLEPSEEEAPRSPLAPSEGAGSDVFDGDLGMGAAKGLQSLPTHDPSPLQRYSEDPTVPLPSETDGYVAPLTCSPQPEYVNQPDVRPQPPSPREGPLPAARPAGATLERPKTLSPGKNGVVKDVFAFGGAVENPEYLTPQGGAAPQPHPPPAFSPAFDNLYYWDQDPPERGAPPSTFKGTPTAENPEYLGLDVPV
# panel of 442 kinases [3] = molecular target: T3, panel of 442 kinases (Homo sapiens, UniProt P29323); settings: EPHB2; for remaining activity at 1 µM: read-out: % of control at 1 µM
# T3 construct: purchased Ambit Biosciences (scanMAXX KINOMEscan)
# T3 sequence (P29323 19-1055): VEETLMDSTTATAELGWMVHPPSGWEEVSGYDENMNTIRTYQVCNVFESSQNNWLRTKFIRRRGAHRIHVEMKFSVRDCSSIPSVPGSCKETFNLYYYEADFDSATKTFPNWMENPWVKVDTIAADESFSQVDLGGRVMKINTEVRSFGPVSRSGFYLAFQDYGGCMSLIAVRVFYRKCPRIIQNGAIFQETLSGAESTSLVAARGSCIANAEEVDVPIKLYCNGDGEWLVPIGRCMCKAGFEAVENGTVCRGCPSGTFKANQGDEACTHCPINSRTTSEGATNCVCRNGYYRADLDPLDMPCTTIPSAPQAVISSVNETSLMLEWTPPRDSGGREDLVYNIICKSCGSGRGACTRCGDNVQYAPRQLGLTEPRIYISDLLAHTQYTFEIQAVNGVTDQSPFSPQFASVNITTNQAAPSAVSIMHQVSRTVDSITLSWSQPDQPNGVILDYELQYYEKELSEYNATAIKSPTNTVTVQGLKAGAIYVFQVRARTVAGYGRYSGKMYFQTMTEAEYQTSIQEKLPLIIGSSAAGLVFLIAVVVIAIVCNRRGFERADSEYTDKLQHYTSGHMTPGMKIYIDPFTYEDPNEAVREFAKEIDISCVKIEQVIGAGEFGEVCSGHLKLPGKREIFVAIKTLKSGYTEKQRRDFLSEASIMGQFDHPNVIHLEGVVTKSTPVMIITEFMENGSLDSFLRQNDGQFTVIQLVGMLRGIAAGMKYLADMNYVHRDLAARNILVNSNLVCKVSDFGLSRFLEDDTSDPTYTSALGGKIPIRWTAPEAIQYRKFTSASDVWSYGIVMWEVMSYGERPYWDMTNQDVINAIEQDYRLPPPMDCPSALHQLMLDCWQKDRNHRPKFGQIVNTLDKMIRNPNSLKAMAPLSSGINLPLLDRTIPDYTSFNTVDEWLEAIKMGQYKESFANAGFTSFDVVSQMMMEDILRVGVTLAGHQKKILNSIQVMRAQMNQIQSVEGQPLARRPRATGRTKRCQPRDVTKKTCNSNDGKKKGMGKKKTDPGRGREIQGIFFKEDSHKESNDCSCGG
# panel of 442 kinases [4] = molecular target: T4, panel of 442 kinases (Homo sapiens, UniProt P49137); settings: kinase MAPKAPK2; for remaining activity at 1 µM: read-out: % of control at 1 µM
# T4 construct: purchased Ambit Biosciences (scanMAXX KINOMEscan)
# T4 sequence (P49137 whole entry): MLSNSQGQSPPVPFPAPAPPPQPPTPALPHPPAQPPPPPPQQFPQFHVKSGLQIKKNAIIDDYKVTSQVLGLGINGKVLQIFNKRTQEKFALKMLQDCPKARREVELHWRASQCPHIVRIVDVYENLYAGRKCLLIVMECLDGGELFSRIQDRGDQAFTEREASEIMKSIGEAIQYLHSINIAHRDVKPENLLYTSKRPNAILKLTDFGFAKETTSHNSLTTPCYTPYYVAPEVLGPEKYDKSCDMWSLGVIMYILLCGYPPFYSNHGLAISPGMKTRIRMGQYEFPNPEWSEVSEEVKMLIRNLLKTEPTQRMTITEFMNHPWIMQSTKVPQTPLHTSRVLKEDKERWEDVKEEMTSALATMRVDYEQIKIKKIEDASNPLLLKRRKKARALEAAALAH
# panel of 442 kinases [5] = molecular target: T5, panel of 442 kinases (Homo sapiens, UniProt Q02779); settings: kinase MLK2; for remaining activity at 1 µM: read-out: % of control at 1 µM
# T5 construct: purchased Ambit Biosciences (scanMAXX KINOMEscan)
# T5 sequence (Q02779 whole entry): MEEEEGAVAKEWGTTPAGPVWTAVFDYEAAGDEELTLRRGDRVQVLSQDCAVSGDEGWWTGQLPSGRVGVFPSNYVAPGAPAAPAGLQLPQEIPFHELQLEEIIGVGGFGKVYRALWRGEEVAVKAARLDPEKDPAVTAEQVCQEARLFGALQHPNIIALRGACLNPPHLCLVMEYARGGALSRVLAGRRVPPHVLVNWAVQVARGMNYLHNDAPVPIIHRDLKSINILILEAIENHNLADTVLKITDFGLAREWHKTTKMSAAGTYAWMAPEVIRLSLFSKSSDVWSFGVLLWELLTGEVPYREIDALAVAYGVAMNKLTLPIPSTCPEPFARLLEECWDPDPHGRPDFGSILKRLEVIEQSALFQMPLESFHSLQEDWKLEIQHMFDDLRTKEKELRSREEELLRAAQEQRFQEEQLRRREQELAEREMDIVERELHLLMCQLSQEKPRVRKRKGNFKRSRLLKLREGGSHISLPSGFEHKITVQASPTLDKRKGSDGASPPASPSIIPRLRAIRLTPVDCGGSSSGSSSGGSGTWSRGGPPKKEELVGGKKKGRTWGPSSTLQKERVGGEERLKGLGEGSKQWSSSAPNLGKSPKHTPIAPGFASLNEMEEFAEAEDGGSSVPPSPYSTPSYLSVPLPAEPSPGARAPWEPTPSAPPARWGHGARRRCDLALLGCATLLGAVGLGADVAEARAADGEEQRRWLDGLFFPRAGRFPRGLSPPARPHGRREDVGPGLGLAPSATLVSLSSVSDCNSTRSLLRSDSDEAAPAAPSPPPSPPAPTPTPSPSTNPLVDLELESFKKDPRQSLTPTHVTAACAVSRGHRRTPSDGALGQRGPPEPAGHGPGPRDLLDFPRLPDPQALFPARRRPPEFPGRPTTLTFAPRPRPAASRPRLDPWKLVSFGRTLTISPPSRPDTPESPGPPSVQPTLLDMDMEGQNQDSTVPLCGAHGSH
# panel of 442 kinases [6] = molecular target: T6, panel of 442 kinases (Homo sapiens, UniProt Q8WXR4); settings: kinase MYO3B; for remaining activity at 1 µM: read-out: % of control at 1 µM
# T6 construct: purchased Ambit Biosciences (scanMAXX KINOMEscan)
# T6 sequence (Q8WXR4 1-1341): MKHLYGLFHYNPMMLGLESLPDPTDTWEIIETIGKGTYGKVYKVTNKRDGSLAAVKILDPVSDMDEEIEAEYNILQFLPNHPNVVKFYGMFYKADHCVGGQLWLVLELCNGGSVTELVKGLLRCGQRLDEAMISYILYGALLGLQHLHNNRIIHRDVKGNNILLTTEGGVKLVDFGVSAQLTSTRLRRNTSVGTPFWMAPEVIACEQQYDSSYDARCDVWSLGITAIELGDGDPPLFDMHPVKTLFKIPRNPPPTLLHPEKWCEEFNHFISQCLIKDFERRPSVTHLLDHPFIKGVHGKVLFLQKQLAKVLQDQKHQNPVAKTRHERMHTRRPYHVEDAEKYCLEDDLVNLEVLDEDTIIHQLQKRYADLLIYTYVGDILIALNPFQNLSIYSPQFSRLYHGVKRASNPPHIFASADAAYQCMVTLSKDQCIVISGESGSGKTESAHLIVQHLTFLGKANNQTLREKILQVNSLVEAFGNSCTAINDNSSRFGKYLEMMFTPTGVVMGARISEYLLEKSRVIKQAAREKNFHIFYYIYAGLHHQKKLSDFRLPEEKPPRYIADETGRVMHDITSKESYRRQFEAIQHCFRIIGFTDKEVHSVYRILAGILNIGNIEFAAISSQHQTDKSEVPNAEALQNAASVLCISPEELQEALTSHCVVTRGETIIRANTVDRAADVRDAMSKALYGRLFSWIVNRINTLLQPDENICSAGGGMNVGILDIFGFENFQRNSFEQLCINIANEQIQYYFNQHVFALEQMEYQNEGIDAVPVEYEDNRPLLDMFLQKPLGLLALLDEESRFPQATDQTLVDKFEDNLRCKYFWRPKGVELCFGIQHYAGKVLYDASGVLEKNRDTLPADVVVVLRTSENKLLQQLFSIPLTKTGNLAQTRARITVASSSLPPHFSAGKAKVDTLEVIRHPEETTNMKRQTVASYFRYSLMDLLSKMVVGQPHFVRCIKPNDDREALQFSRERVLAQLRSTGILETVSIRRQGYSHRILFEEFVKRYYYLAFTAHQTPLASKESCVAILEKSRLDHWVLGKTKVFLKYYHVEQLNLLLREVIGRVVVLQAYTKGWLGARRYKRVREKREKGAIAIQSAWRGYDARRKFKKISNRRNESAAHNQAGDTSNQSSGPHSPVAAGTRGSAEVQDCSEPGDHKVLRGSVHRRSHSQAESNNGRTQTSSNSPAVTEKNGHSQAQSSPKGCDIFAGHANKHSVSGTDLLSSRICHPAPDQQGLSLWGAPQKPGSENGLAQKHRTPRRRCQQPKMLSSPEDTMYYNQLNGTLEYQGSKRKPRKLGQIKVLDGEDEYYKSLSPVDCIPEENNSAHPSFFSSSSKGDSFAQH
# [7] = 10 µM, read-out: % of control at 10 µM
# T1 sequence (P00533 with tags, fused parts or gaps DEL752-759): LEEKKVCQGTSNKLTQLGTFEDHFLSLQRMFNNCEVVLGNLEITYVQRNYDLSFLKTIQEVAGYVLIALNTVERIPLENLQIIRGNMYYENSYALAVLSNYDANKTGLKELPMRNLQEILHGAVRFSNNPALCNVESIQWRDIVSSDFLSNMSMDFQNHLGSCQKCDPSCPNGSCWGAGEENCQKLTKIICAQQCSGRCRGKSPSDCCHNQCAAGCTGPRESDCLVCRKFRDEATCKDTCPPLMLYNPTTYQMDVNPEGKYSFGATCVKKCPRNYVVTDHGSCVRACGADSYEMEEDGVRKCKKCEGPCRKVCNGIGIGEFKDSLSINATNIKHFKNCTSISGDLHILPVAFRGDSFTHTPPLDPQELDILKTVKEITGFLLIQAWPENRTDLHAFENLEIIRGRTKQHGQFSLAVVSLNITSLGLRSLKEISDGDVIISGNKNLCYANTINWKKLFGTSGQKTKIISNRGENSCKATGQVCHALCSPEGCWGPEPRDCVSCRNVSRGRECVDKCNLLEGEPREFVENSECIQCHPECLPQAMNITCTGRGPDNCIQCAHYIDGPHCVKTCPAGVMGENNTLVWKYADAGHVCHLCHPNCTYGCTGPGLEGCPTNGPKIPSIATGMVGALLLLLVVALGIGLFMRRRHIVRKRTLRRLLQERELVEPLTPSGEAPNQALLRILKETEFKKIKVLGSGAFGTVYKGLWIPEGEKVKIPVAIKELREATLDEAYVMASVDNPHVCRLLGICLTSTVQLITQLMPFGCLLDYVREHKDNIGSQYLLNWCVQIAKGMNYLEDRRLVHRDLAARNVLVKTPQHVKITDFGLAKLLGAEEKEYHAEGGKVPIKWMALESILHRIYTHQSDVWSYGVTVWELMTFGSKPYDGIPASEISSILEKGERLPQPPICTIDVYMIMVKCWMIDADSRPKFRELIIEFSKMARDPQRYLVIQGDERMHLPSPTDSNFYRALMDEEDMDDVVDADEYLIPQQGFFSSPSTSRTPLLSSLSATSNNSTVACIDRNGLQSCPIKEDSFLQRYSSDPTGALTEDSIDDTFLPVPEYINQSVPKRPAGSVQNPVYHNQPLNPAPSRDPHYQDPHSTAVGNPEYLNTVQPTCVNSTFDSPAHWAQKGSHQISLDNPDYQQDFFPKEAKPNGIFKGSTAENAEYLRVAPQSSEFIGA
SMILES,remaining activity at 1 µM (panel of 442 kinases [1]) [%],remaining activity at 10 µM (panel of 442 kinases [1]; [7]) [%],remaining activity at 1 µM (panel of 442 kinases [2]) [%],remaining activity at 10 µM (panel of 442 kinases [2]; [7]) [%],remaining activity at 1 µM (panel of 442 kinases [3]) [%],remaining activity at 10 µM (panel of 442 kinases [3]; [7]) [%],remaining activity at 1 µM (panel of 442 kinases [4]) [%],remaining activity at 10 µM (panel of 442 kinases [4]; [7]) [%],remaining activity at 1 µM (panel of 442 kinases [5]) [%],remaining activity at 10 µM (panel of 442 kinases [5]; [7]) [%],remaining activity at 1 µM (panel of 442 kinases [6]) [%],remaining activity at 10 µM (panel of 442 kinases [6]; [7]) [%]
Nc1cc(C(F)(F)F)c(-c2cc(N3CCOCC3)nc(N3CCOCC3)n2)cn1 [Buparlisib],83,87,85,100,82,100,100,100,100,100,51,73
"Cn1c(=O)n(-c2ccc(C(C)(C)C#N)cc2)c2c3cc(-c4cnc5ccccc5c4)ccc3ncc21 [Dactolisib, 2-methyl-2-[4-(3-methyl-2-oxo-8-quinolin-3-yl-2,3-dihydroimidazo[4,5-c]quinolin-1-yl)-phenyl] propionitrile]",100,,100,,100,,92,,100,,81,
COc1ncc(-c2ccc3nccc(-c4ccnnc4)c3c2)cc1NS(=O)(=O)c1ccc(F)cc1F [Omipalisib],100,,100,,100,,100,,98,,91,
"FC(F)c1nc2ccccc2n1-c1nc(N2CCOCC2)nc(N2CCOCC2)n1 [ZSTK474, 2-(difluoromethyl)-1-[4,6-di(4-morpholinyl)-1,3,5-triazin-2-yl]-1H-benzimidazole]",100,,100,,94,,99,,100,,64,
